Data set [1] in a line: Permeability in Caco-2 Assay. The conditions noted are these: human, pH 7.4, 2 hours; for efflux ratio at 2 h, 2 μM: Caco-2, 2.00 μM bi-directionally; for Papp A→B at 2 h, 2 μM: Caco-2, 2.00 μM, pH 7.40. In kind it is in vitro ADME. The method, then:
Permeability of test compounds was determined in Caco-2 Assay. Caco-2 cells purchased from ATCC were seeded onto […] (PET) in 96-well Corning Insert plates at 1×10^5 cells/cm2, and refreshed medium every 4-5 days until to the 21st to 28th day for confluent cell monolayer formation. The transport buffer in the study was HBSS with 10.0 mM HEPES at pH 7.40±0.05. Test compound was tested at 2.00 μM bi-directionally in duplicate. Digoxin was tested at 10.0 μM bi-directionally in duplicate, while nadolol and metoprolol were tested at 2.00 μM in A to B direction in duplicate. Final DMSO concentration was adjusted to less than 1%. The plate was incubated for 2 hours in CO2 incubator at 37±1° C., with 5% CO2 at saturated humidity without shaking. And all samples after mixed with acetonitrile containing internal standard were centrifuged at 3200×g for 10 min. For nadolol and metoprolol, 200 μL supernatant solution was diluted with 600 μL ultra-pure water for LC-MS/MS analysis. For digoxin and test compounds, 200 μL supernatant solution was diluted with 200 μL ultra-pure water for LC-MS/MS analysis. Concentrations of test and control compounds in starting solution, donor solution, and receiver solution were quantified by LC-MS/MS methodologies, using peak area ratio of analyte/internal standard. After transport assay, lucifer yellow rejection assay was applied to determine the Caco-2 cell monolayer integrity.
A general note: Passage across Caco-2 layers is used to estimate intestinal permeability.

For data set [2], the target named is KAT6A (Homo sapiens (Human), UniProt Q92794). Put plainly: KAT6A Biochemical Assay (radiometric 384-well, [3H]-Ac-CoA, biotinylated H4(1-30) peptide). Particulars: 5 nM KAT6A enzyme solution (2×), 60 min reaction at room temperature. The procedure: Inhibition of KAT6A enzymatic activity by test compounds was determined using a radiometric 384-well format assay. A 10-point serial dilution of the test compounds were conducted in DMSO and then a volume of 200 nL was transferred into 384-well assay plate by Echo (Labcyte). 10 μL of 2× enzyme solution (5 nM KAT6A (Active Motif) in assay buffer (50 mM Tris-HCl pH 8.0, 50 mM KCl, 0.1 mM EDTA, 5% glycerol, 1 mM DTT)) was dispensed into assay plate except for low control wells, in which 10 μL of assay buffer was transferred. The plate was incubated at room temperature for 15 min before addition of 10 μL of 2×[^3H]-acetyl coenzyme A (Ac-CoA) and substrate peptide mix solution (500 nM (KAT6A) [^3H]-Ac-CoA (PerkinElmer) and 800 nM (KAT6A) biotinylated H4(1-30) peptide (GL Biochem) in assay buffer) to each well to start reaction. The plate was incubated at room temperature for 60 min (KAT6A), and then the reaction was stopped by adding 10 μL of stop solution (cold Ac-CoA (Cayman) in 1× assay buffer). 25 μL of reaction in each well was transferred to Flashplate (PerkinElmer) and incubated for another 1 hour at room temperature. The plate was read on Microbeta and the inhibition percentage of each compound treated well was calculated based on the equation in h %=(Max−sample)/(Max−Min)*100 where Max is signal from high control wells with enzyme, and Min is signal from low control wells with assay buffer only. The in h % data were further fit in XL-Fit to obtain IC50 values using a 4-parameter logistic (4PL) sigmoidal curve model.
Sequence of KAT6A (Q92794 whole entry): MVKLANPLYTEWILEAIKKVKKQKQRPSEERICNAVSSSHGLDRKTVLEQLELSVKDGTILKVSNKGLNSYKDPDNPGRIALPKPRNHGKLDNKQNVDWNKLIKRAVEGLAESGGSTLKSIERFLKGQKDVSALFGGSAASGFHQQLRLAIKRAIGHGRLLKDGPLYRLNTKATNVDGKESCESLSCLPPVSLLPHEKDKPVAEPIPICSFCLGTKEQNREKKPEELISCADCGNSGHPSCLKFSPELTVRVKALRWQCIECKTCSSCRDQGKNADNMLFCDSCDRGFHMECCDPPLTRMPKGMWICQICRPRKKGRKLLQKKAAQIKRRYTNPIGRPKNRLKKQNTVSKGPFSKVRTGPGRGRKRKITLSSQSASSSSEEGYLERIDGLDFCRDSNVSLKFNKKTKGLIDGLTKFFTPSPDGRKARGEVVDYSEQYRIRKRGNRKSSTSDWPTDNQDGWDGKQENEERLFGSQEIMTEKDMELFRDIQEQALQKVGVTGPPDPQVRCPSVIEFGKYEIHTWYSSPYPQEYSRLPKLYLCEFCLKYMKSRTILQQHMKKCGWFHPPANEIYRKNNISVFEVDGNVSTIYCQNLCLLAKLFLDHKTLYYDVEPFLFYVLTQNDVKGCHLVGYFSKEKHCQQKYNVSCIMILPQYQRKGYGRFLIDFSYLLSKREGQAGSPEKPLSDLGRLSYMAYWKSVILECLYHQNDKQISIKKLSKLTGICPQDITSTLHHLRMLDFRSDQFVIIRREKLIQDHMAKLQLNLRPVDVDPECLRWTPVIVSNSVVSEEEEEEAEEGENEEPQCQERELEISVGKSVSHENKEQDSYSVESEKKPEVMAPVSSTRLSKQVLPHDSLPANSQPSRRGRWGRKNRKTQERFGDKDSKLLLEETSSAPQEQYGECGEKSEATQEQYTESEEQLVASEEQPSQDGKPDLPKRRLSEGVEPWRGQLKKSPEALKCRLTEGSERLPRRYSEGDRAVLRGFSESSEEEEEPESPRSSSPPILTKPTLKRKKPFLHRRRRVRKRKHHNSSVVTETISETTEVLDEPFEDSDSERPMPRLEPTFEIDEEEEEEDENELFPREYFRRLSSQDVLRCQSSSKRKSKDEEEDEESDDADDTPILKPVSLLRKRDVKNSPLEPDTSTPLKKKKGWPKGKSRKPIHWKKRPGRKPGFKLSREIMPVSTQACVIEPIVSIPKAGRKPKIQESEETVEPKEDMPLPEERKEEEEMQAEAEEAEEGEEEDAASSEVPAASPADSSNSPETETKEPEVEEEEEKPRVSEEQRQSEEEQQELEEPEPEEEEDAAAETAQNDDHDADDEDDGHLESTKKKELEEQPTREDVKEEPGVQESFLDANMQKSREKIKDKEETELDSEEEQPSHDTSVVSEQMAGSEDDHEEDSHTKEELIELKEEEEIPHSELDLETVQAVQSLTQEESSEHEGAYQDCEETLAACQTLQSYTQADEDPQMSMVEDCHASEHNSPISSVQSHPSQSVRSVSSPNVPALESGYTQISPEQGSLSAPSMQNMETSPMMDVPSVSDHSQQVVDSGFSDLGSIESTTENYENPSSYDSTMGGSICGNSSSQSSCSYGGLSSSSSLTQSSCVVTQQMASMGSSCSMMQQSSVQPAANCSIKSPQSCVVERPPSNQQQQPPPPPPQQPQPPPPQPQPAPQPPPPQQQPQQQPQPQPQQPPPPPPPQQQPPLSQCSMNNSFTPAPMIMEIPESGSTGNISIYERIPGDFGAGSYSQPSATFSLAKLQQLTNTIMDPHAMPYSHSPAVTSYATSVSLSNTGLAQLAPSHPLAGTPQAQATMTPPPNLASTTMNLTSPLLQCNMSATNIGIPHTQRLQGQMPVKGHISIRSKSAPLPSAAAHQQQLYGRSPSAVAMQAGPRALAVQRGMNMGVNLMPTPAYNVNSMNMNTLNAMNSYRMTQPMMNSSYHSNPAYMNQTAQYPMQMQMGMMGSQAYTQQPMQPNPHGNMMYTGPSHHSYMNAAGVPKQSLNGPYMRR

With `COc1cccc(OC)c1S(=O)(=O)Nc1noc2cc(Oc3ccccn3)cc(OC)c12` [Compound 9, 2,6-dimethoxy-N-(4-methoxy-6-(pyridin-2-yloxy)benzo[d]isoxazol-3-yl)benzenesulfonamide], in data set [1], the efflux ratio at 2 h, 2 μM was found to be 3.66 and the Papp A→B at 2 h, 2 μM is 11.8 ×10⁻⁶ cm/s. Moreover, in data set [2], the IC50 was in the range of 10 to 100 nM. With `COc1cccc(OC)c1S(=O)(=O)Nc1noc2cc(Cn3cccn3)c3c(c12)OCCCC3` [Compound 19], in data set [1], the efflux ratio at 2 h, 2 μM came to 13.2 and the apical-to-basolateral permeability (Papp A→B) at 2 h, 2 μM was determined as 3.47 ×10⁻⁶ cm/s. Besides, the IC50 in data set [2] was less than 10 nM. In the same order, the values of `COc1cccc(OC)c1S(=O)(=O)Nc1noc2cc(Oc3ccccn3)cc(OC(F)F)c12` [Compound 22, N-(4-(difluoromethoxy)-6-(pyridin-2-yloxy)benzo[d]isoxazol-3-yl)-2,6-dimethoxybenzenesulfonamide] are 6.87, 3.45 ×10⁻⁶ cm/s and 10 to 100 nM. In the same order, the values of `COc1cccc(OC)c1S(=O)(=O)Nc1noc2cc(Oc3ccccn3)c3c(c12)OCC3` [Compound 23, 2,6-dimethoxy-N-(4-(pyridin-2-yloxy)-2,3-dihydrobenzofuro [7,6-d]isoxazol-8-yl)benzenesulfonamide] are 14.2, 1.3 ×10⁻⁶ cm/s and less than 10 nM.

Turning to `COc1ccnc(OC)c1S(=O)(=O)Nc1noc2cc(Oc3ccccn3)c3c(c12)OCCC3` [Compound 28, 2,4-dimethoxy-N-(5-(pyridin-2-yloxy)-3,4-dihydro-2H-chromeno[8,7-d]isoxazol-9-yl)pyridine-3-sulfonamide], in data set [1], the efflux ratio at 2 h, 2 μM came to 9.58 and the apical-to-basolateral permeability (Papp A→B) at 2 h, 2 μM is 2.38 ×10⁻⁶ cm/s. Besides, in data set [2], the 50% inhibitory concentration (IC50) lay in the range of 10 to 100 nM. Consider `COc1ccnc(OC)c1S(=O)(=O)Nc1noc2cc(Cn3cccn3)c(F)c(OCF)c12` [Compound 42, N-(6-((1H-pyrazol-1-yl)methyl)-5-fluoro-4-(fluoromethoxy)benzo[d]isoxazol-3-yl)-2,4-dimethoxypyridine-3-sulfonamide], for which, in data set [2], the concentration for half-maximal inhibition (IC50) lay in the range of 10 to 100 nM. The same measure, in the same setting: the same measure for `COc1cc(C)nc(OC)c1S(=O)(=O)Nc1noc2cc(Cn3cccn3)c(F)c(OCF)c12` [Compound 43, N-(6-((1H-pyrazol-1-yl)methyl)-5-fluoro-4-(fluoromethoxy)benzo[d]isoxazol-3-yl)-2,4-dimethoxy-6-methylpyridine-3-sulfonamide]: 10 to 100 nM; for `COc1cc(C)nc(OC)c1S(=O)(=O)Nc1noc2cc(Cn3cccn3)c(F)c(OC(F)F)c12` [Compound 44, N-(6-((1H-pyrazol-1-yl)methyl)-4-(difluoromethoxy)-5-fluorobenzo[d]isoxazol-3-yl)-2,4-dimethoxy-6-methylpyridine-3-sulfonamide]: 10 to 100 nM. Regarding `COc1cccc(OC)c1S(=O)(=O)Nc1noc2cc(Cc3ccccn3)cc(OCF)c12` [Compound 45, N-(4-(fluoromethoxy)-6-(pyridin-2-ylmethyl)benzo[d]isoxazol-3-yl)-2,6-dimethoxybenzenesulfonamide], in data set [2], the concentration for half-maximal inhibition (IC50) was 10 to 100 nM. In data set [2], `COc1ccnc(OC)c1S(=O)(=O)Nc1noc2cc(Cn3cccn3)cc(OCF)c12` [Compound 48, N-(6-((1H-pyrazol-1-yl)methyl)-4-(fluoromethoxy)benzo[d]isoxazol-3-yl)-2,4-dimethoxypyridine-3-sulfonamide] had a concentration for half-maximal inhibition (IC50) of less than 10 nM.

Take `COc1cc(C2CC2)nc(OC)c1S(=O)(=O)Nc1noc2cc(Cn3cccn3)cc(OCF)c12` [Compound 49, N-(6-((1H-pyrazol-1-yl)methyl)-4-(fluoromethoxy)benzo [d]isoxazol-3-yl)-6-cyclopropyl-2,4-dimethoxypyridine-3-sulfonamide]: the IC50 in data set [2] is 10 to 100 nM. As to `COc1cc(C(F)F)nc(OC)c1S(=O)(=O)Nc1noc2cc(Cn3cccn3)cc(OCF)c12` [Compound 50, N-(6-((1H-pyrazol-1-yl)methyl)-4-(fluoromethoxy)benzo[d]isoxazol-3-yl)-6-(difluoromethyl)-2,4-dimethoxypyridine-3-sulfonamide], the IC50 in data set [2] lay within 10 to 1000 nM. In data set [2], `COc1cc(C(F)(F)F)nc(OC)c1S(=O)(=O)Nc1noc2cc(Cn3cccn3)cc(OCF)c12` [Compound 51, N-(6-((1H-pyrazol-1-yl)methyl)-4-(fluoromethoxy)benzo[d]isoxazol-3-yl)-2,4-dimethoxy-6-(trifluoromethyl)pyridine-3-sulfonamide] came in with a half-inhibitory concentration (IC50) of less than 10 nM.

With `CCc1cc(OC)c(S(=O)(=O)Nc2noc3cc(Cn4cccn4)cc(OCF)c23)c(OC)n1` [Compound 52, N-(6-((1H-pyrazol-1-yl)methyl)-4-(fluoromethoxy)benzo[d]isoxazol-3-yl)-6-ethyl-2,4-dimethoxypyridine-3-sulfonamide], the IC50 in data set [2] lay in the range of 10 to 100 nM. On the same count and under the same terms, under `CC#Cc1cc(OC)c(S(=O)(=O)Nc2noc3cc(Cn4cccn4)cc(OCF)c23)c(OC)n1` [Compound 53, N-(6-((1H-pyrazol-1-yl)methyl)-4-(fluoromethoxy)benzo[d]isoxazol-3-yl)-2,4-dimethoxy-6-(prop-1-yn-1-yl)pyridine-3-sulfonamide] stands 10 to 100 nM; under `C#Cc1cc(OC)c(S(=O)(=O)Nc2noc3cc(Cn4cccn4)cc(OCF)c23)c(OC)n1` [Compound 54, N-(6-((1H-pyrazol-1-yl)methyl)-4-(fluoromethoxy)benzo[d]isoxazol-3-yl)-6-ethynyl-2,4-dimethoxypyridine-3-sulfonamide], less than 10 nM.

As for `COc1cc(C)nc(OC)c1S(=O)(=O)Nc1noc2cc(Oc3nccs3)cc(OCF)c12` [Compound 55, N-(4-(fluoromethoxy)-6-(thiazol-2-yloxy)benzo[d]isoxazol-3-yl)-2,4-dimethoxy-6-methylpyridine-3-sulfonamide], in data set [1], the efflux ratio at 2 h, 2 μM turned out to be 12.3 and the Papp A→B at 2 h, 2 μM came out at 1.46 ×10⁻⁶ cm/s. The IC50 in data set [2] lay in the range of 10 to 100 nM. For the compound `COc1ccccc1S(=O)(=O)Nc1noc2cc(Oc3nccs3)cc(OCF)c12` [Compound 56, N-(4-(fluoromethoxy)-6-(thiazol-2-yloxy)benzo[d]isoxazol-3-yl)-2-methoxybenzenesulfonamide], in data set [1], the efflux ratio at 2 h, 2 μM is 2.84 and the apparent permeability from apical to basolateral (Papp A→B) at 2 h, 2 μM was determined as 5.28 ×10⁻⁶ cm/s. Also, in data set [2], the IC50 was less than 10 nM. Regarding `COc1cc(C)nc(OC)c1S(=O)(=O)Nc1noc2cc(Oc3nccs3)cc(OC)c12` [Compound 57, 2,4-dimethoxy-N-(4-methoxy-6-(thiazol-2-yloxy)benzo[d]isoxazol-3-yl)-6-methylpyridine-3-sulfonamide], in data set [1], the apical-to-basolateral permeability (Papp A→B) at 2 h, 2 μM worked out at 3.38 ×10⁻⁶ cm/s. Moreover, the IC50 in data set [2] is less than 10 nM. Take `COc1cccc(OC)c1S(=O)(=O)Nc1noc2cc(Oc3nccs3)cc(OCF)c12` [Compound 58]: in data set [1], the efflux ratio at 2 h, 2 μM turned out to be 6.17 and the Papp A→B at 2 h, 2 μM stood at 5.14 ×10⁻⁶ cm/s. This compound had a half-maximal inhibitory concentration (IC50) in data set [2] of less than 10 nM. Turning to `COc1cccc(OC)c1S(=O)(=O)Nc1noc2cc(Oc3nccs3)cc(OC)c12` [Compound 59, 2,6-dimethoxy-N-(4-methoxy-6-(thiazol-2-yloxy)benzo[d]isoxazol-3-yl)benzenesulfonamide], in data set [1], the efflux ratio at 2 h, 2 μM is 4.53 and the Papp A→B at 2 h, 2 μM was found to be 6.2 ×10⁻⁶ cm/s. For the same compound, the half-inhibitory concentration (IC50) in data set [2] is less than 10 nM. `COc1cccc(OC)c1S(=O)(=O)Nc1noc2cc(Cc3nccs3)cc(OCF)c12` [Compound 65, N-(4-(fluoromethoxy)-6-(thiazol-2-ylmethyl)benzo[d]isoxazol-3-yl)-2,6-dimethoxybenzenesulfonamide] displayed an IC50 in data set [2] of less than 10 nM. In data set [2], `COc1cc(C)nc(OC)c1S(=O)(=O)Nc1noc2cc(Cn3cccn3)c3c(c12)OCC1CC31` (stereo not shown) [Compound 69, N-(7-((1H-pyrazol-1-yl)methyl)-5,5a,6,6a-tetrahydrocyclopropa[3,4]chromeno[8,7-d]isoxazol-3-yl)-2,4-dimethoxy-6-methylpyridine-3-sulfonamide] came in with an IC50 of less than 10 nM. Take `COc1cccc(OC)c1S(=O)(=O)Nc1noc2cc(Cn3cccn3)cc(OC)c12` [PF-9363, reference compound]: the apical-to-basolateral permeability (Papp A→B) at 2 h, 2 μM in data set [1] is 0.628 ×10⁻⁶ cm/s.

Usually efflux ratio stands for the permeability from basolateral to apical divided by that in the opposite direction, in the common usage. The Papp A→B is how fast a substance crosses the layer from the apical side. A high value points to ready permeation. A word on the IC50: it is the point on the concentration scale where inhibition reaches its midpoint. Lower therefore signals greater potency in that assay.

(Values after patent publication US20240109880A1 (Insilico Medicine IP Limited, priority 2021, published 2024).)
